The results in this text go back to patent US12514938B2, “Fibroblast activation protein targeting peptides” (PERSPECTIVE THERAPEUTICS, INC., priority 2023, dated 2026).

Molecules are shown by their SMILES. *1 amine or outer side, *2 acyl side, *3 side chain or, on linkers, in order; H or OH if unused. Where a SMILES comes first, the peptide text is derived from it. Bridges are numbered along the chain shown (N, C = ends). [ ]: non-standard residue; d: D form. The star is where a group is joined. X2 = NC(=O)CN1CCN(CC(=O)O)CCN(CC(=O)NCCOCCOCCC(=O)NCCSCc2cc(C[*:1])cc(C[*:2])c2)CCN(CC(=O)O)CC1; X1 = NC(=O)CN1CCN(CC(=O)O)CCN(CC(=O)*)CCN(CC(=O)O)CC1; NOTA = O=C(O)CN1CCN(CC(=O)O)CCN(CC(=O)*)CC1; 1Nal = N[C@@H](Cc1cccc2ccccc12)C(=O)O; oXylylene = c1ccc(C[*:2])c(C[*:1])c1; Bta = N[C@@H](Cc1csc2ccccc12)C(=O)O; pXylylene = c1cc(C[*:2])ccc1C[*:1]; 3Pal = N[C@@H](Cc1cccnc1)C(=O)O; PEG4 = NCCOCCOCCOCCOCCC(=O)O; 12Ado = NCCCCCCCCCCCC(=O)O; PEG3 = NCCOCCOCCOCCC(=O)O; PEG2 = NCCOCCOCCC(=O)O; Butyryl = CCCC(=O)*; PEG1 = NCCOCCC(=O)O; Ahx = NCCCCCC(=O)O

This assay addresses T1, Human Fibroblast Activation Protein (FAP) (Homo sapiens, UniProt Q12884).
T1 sequence (Q12884 1-760): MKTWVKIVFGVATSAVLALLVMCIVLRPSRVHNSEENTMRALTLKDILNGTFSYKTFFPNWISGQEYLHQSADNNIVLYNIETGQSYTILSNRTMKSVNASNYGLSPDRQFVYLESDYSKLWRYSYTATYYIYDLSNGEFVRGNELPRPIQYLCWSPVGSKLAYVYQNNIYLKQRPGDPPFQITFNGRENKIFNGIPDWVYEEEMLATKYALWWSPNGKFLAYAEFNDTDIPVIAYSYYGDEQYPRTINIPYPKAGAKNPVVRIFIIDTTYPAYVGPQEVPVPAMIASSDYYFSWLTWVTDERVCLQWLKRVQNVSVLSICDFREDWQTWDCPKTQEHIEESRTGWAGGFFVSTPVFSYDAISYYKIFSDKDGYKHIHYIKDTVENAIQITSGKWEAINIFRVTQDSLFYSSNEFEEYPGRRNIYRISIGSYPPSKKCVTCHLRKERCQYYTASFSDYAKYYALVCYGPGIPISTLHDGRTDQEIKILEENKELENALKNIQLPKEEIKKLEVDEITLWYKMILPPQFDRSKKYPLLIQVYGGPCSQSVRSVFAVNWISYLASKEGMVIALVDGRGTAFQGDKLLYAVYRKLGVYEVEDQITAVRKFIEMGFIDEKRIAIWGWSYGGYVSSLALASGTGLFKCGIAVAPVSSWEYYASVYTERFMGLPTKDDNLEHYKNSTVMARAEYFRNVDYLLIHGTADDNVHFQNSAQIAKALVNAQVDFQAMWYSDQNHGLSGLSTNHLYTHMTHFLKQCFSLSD
The assay can be described thus: Enzyme inhibition assay against human FAP (substrate Z-GP-AMC), Example 1. The settings on record: human FAP 5 ng/well, 50 μM Z-GP-AMC; Ki from IC50 by Cheng-Prusoff. The assay is classed as biochemical. On the procedure: Binding Affinity Against Human Fibroblast Activation Protein (FAP)
An enzyme inhibition assay was performed to determine IC50 values and then the Cheng-Prusoff equation used to calculate the Ki given a known Km of the substrate Z-GP-AMC for FAP. To perform the assay, FAP (5 ng/well) and the test peptide at varying concentrations (i.e. 10^−6 to 10^−12) were incubated in a black 96-well plate for 10 minutes at RT on a shaker plate. Then, the substrate Z-GP-AMC was added to give a final concentration of 50 μM. The total reaction volume per well was 100 μL The reaction was allowed to incubate at RT on a shaker plate for 1 hour protected from light, and then fluorescence read with a BioTek Synergy LX plate reader at an ex/em (360/40 and 460/40). Experiments were performed in at least duplicate, and controls of buffer only, buffer and FAP enzyme, and buffer with substrate and FAP enzyme only were included for comparison. The buffer used for the assay was 50 mM Tris-HCl, 1M NaCl, and 1 mg/mL BSA, pH=7.5. Data was plotted in GraphPad Prism and non-linear regression used to calculate IC50 values. The compounds tested and Ki values of each were as follows: […]

Usually Ki stands for a dissociation constant, usually derived from enzyme kinetics or from competition with a known ligand.

On to `CCCC(=O)N[C@H]1CSCc2cc(CSCCNC(=O)CCOCCOCCNC(=O)CN3CCN(CC(=O)O)CCN(CC(N)=O)CCN(CC(=O)O)CC3)cc(c2)CSC[C@@H](C(N)=O)NC(=O)[C@H](Cc2c[nH]c3ccccc23)NC(=O)[C@H](Cc2c[nH]c3ccccc23)NC(=O)[C@H](CCC(N)=O)NC(=O)[C@H](CCC(=O)O)NC(=O)[C@H](Cc2c[nH]c3ccccc23)NC(=O)[C@@H]2CCCN2C(=O)[C@H]([C@@H](C)O)NC1=O` [VMT-FAP-2-57, But-[C(mXtB(CA-PEG2-PSC))TPWEQWWC]-NH2] (Butyryl-CTPWEQWWC-NH2; linker 1-9 via X2), for which the inhibitory constant (Ki) came out at 0.71 nM.

For the molecule `C[C@@H](O)[C@@H]1NC(=O)[C@@H](NC(=O)[C@H](CO)NC(=O)CCOCCOCCNC(=O)CN2CCN(CC(=O)O)CCN(CC(N)=O)CCN(CC(=O)O)CC2)CSCc2ccccc2CSC[C@@H](C(N)=O)NC(=O)[C@H](Cc2c[nH]c3ccccc23)NC(=O)[C@H](Cc2c[nH]c3ccccc23)NC(=O)[C@H](CCC(N)=O)NC(=O)[C@H](CCC(=O)O)NC(=O)[C@H](Cc2cccc3ccccc23)NC(=O)[C@@H]2CCCN2C1=O` [VMT-FAP-2-60, PSC-PEG2-S-[C(oXdB)TP1-NalEQWWC]-NH2] ({X1-PEG2}-SCTP[1Nal]EQWWC-NH2; linker 2-10 via oXylylene), the inhibitory constant (Ki) was 0.48 nM.

`C[C@@H](O)[C@@H]1NC(=O)[C@@H](NC(=O)[C@H](CO)NC(=O)CCOCCOCCNC(=O)CN2CCN(CC(=O)O)CCN(CC(N)=O)CCN(CC(=O)O)CC2)CSCc2ccccc2CSC[C@@H](C(N)=O)NC(=O)[C@H](Cc2c[nH]c3ccccc23)NC(=O)[C@H](Cc2c[nH]c3ccccc23)NC(=O)[C@H](CCC(N)=O)NC(=O)[C@H](CCC(=O)O)NC(=O)[C@H](Cc2csc3ccccc23)NC(=O)[C@@H]2CCCN2C1=O` [VMT-FAP-2-61, PCS-PEG2-S-[C(oXdB)TPBtaEQWWC]-NH2] ({X1-PEG2}-SCTP[Bta]EQWWC-NH2; linker 2-10 via oXylylene): the Ki turned out to be 0.3 nM.

Regarding `C[C@@H](O)[C@@H]1NC(=O)[C@@H](NC(=O)[C@H](CO)NC(=O)CCOCCOCCNC(=O)CN2CCN(CC(=O)O)CCN(CC(N)=O)CCN(CC(=O)O)CC2)CSCc2ccccc2CSC[C@@H](C(N)=O)NC(=O)[C@H](Cc2c[nH]c3ccccc23)NC(=O)[C@H](Cc2c[nH]c3ccccc23)NC(=O)[C@H](CCC(N)=O)NC(=O)[C@H](CCC(=O)O)NC(=O)[C@H](Cc2cccnc2)NC(=O)[C@@H]2CCCN2C1=O` [VMT-FAP-2-62, PCS-PEG2-S-[C(oXdB)TP3-PalEQWWC]-NH2] ({X1-PEG2}-SCTP[3Pal]EQWWC-NH2; linker 2-10 via oXylylene), the inhibition constant (Ki) amounted to 0.61 nM.

`C[C@@H](O)[C@@H]1NC(=O)[C@@H](NC(=O)CCOCCNC(=O)CN2CCN(CC(=O)O)CCN(CC(N)=O)CCN(CC(=O)O)CC2)CSCc2ccccc2CSC[C@@H](C(N)=O)NC(=O)[C@H](Cc2c[nH]c3ccccc23)NC(=O)[C@H](Cc2c[nH]c3ccccc23)NC(=O)[C@H](CCC(N)=O)NC(=O)[C@H](CCC(=O)O)NC(=O)[C@H](Cc2c[nH]c3ccccc23)NC(=O)[C@@H]2CCCN2C1=O` [VMT-FAP-2-67, PSC-PEG1-[C(oXdB)TPWEQWWC]-NH2] ({X1-PEG1}-CTPWEQWWC-NH2; linker 1-9 via oXylylene): the inhibitory constant (Ki) stood at 0.08 nM.

Turning to `C[C@@H](O)[C@@H]1NC(=O)[C@@H](NC(=O)CCOCCOCCOCCNC(=O)CN2CCN(CC(=O)O)CCN(CC(N)=O)CCN(CC(=O)O)CC2)CSCc2ccccc2CSC[C@@H](C(N)=O)NC(=O)[C@H](Cc2c[nH]c3ccccc23)NC(=O)[C@H](Cc2c[nH]c3ccccc23)NC(=O)[C@H](CCC(N)=O)NC(=O)[C@H](CCC(=O)O)NC(=O)[C@H](Cc2c[nH]c3ccccc23)NC(=O)[C@@H]2CCCN2C1=O` [VMT-FAP-2-68, PSC-PEG3-[C(oXdB)TPWEQWWC]-NH2] ({X1-PEG3}-CTPWEQWWC-NH2; linker 1-9 via oXylylene), the Ki worked out at 0.64 nM.

As for `C[C@@H](O)[C@@H]1NC(=O)[C@@H](NC(=O)CCOCCOCCOCCOCCNC(=O)CN2CCN(CC(=O)O)CCN(CC(N)=O)CCN(CC(=O)O)CC2)CSCc2ccccc2CSC[C@@H](C(N)=O)NC(=O)[C@H](Cc2c[nH]c3ccccc23)NC(=O)[C@H](Cc2c[nH]c3ccccc23)NC(=O)[C@H](CCC(N)=O)NC(=O)[C@H](CCC(=O)O)NC(=O)[C@H](Cc2c[nH]c3ccccc23)NC(=O)[C@@H]2CCCN2C1=O` [VMT-FAP-2-69, PSC-PEG4-[C(oXdB)TPWEQWWC]-NH2] ({X1-PEG4}-CTPWEQWWC-NH2; linker 1-9 via oXylylene), the Ki stood at 0.01 nM.

Turning to `C[C@@H](O)[C@@H]1NC(=O)[C@@H](NC(=O)CCCCCNC(=O)CN2CCN(CC(=O)O)CCN(CC(N)=O)CCN(CC(=O)O)CC2)CSCc2ccccc2CSC[C@@H](C(N)=O)NC(=O)[C@H](Cc2c[nH]c3ccccc23)NC(=O)[C@H](Cc2c[nH]c3ccccc23)NC(=O)[C@H](CCC(N)=O)NC(=O)[C@H](CCC(=O)O)NC(=O)[C@H](Cc2c[nH]c3ccccc23)NC(=O)[C@@H]2CCCN2C1=O` [VMT-FAP-2-70, PSC-6AHA-[C(oXdB)TPWEQWWC]-NH2] ({X1-Ahx}-CTPWEQWWC-NH2; linker 1-9 via oXylylene), the Ki was found to be 0.64 nM.

For `C[C@@H](O)[C@@H]1NC(=O)[C@@H](NC(=O)CCCCCCCCCCCNC(=O)CN2CCN(CC(=O)O)CCN(CC(N)=O)CCN(CC(=O)O)CC2)CSCc2ccccc2CSC[C@@H](C(N)=O)NC(=O)[C@H](Cc2c[nH]c3ccccc23)NC(=O)[C@H](Cc2c[nH]c3ccccc23)NC(=O)[C@H](CCC(N)=O)NC(=O)[C@H](CCC(=O)O)NC(=O)[C@H](Cc2c[nH]c3ccccc23)NC(=O)[C@@H]2CCCN2C1=O` [VMT-FAP-2-74, PSC-12-Ado-[C(oXdB)TPWEQWWC]-NH2] ({X1-12Ado}-CTPWEQWWC-NH2; linker 1-9 via oXylylene), the Ki was determined as 6.66 nM.

`C[C@@H](O)[C@@H]1NC(=O)[C@@H](NC(=O)CCCCCNC(=O)CN2CCN(CC(=O)O)CCN(CC(N)=O)CCN(CC(=O)O)CC2)CSCc2ccccc2CSC[C@@H](C(=O)O)NC(=O)[C@H](Cc2c[nH]c3ccccc23)NC(=O)[C@H](Cc2c[nH]c3ccccc23)NC(=O)[C@H](CCC(N)=O)NC(=O)[C@H](CCC(=O)O)NC(=O)[C@H](Cc2c[nH]c3ccccc23)NC(=O)[C@@H]2CCCN2C1=O` [VMT-FAP-2-75, PSC-6AHA-[C(oXdB)TPWEQWWC]-COOH] ({X1-Ahx}-CTPWEQWWC-OH; linker 1-9 via oXylylene): the inhibition constant (Ki) was 1.26 nM.

As to `C[C@@H](O)[C@@H]1NC(=O)[C@@H](NC(=O)CCOCCOCCNC(=O)CN2CCN(CC(=O)O)CCN(CC(N)=O)CCN(CC(=O)O)CC2)CSCc2ccccc2CSC[C@@H](C(=O)O)NC(=O)[C@H](Cc2c[nH]c3ccccc23)NC(=O)[C@H](Cc2c[nH]c3ccccc23)NC(=O)[C@H](CCC(N)=O)NC(=O)[C@H](CCC(=O)O)NC(=O)[C@H](Cc2c[nH]c3ccccc23)NC(=O)[C@@H]2CCCN2C1=O` [VMT-FAP-2-76, PSC-PEG2-[C(oXdB)TPWEQWWC]-COOH] ({X1-PEG2}-CTPWEQWWC-OH; linker 1-9 via oXylylene), the inhibitory constant (Ki) was 31.4 nM.

With `C[C@@H](O)[C@@H]1NC(=O)[C@@H](NC(=O)CCOCCOCCNC(=O)CN2CCN(CC(=O)O)CCN(CC(=O)O)CC2)CSCc2ccccc2CSC[C@@H](C(N)=O)NC(=O)[C@H](Cc2c[nH]c3ccccc23)NC(=O)[C@H](Cc2c[nH]c3ccccc23)NC(=O)[C@H](CCC(N)=O)NC(=O)[C@H](CCC(=O)O)NC(=O)[C@H](Cc2c[nH]c3ccccc23)NC(=O)[C@@H]2CCCN2C1=O` [VMT-FAP-2-78, NOTA-PEG2-[C(oXdB)TPWEQWWC]-NH2] ({NOTA-PEG2}-CTPWEQWWC-NH2; linker 1-9 via oXylylene), the inhibitory constant (Ki) was determined as 0.01 nM.

For the molecule `C[C@@H](O)[C@@H]1NC(=O)[C@@H](NC(=O)CCOCCOCCNC(=O)CN2CCN(CC(=O)O)CCN(CC(N)=O)CCN(CC(=O)O)CC2)CSCc2ccc(cc2)CSC[C@@H](C(N)=O)NC(=O)[C@H](Cc2c[nH]c3ccccc23)NC(=O)[C@H](Cc2c[nH]c3ccccc23)NC(=O)[C@H](CCC(N)=O)NC(=O)[C@H](CCC(=O)O)NC(=O)[C@H](Cc2c[nH]c3ccccc23)NC(=O)[C@@H]2CCCN2C1=O` [VMT-FAP-2-82, PSC-PEG2-[C(pXdB)TPWEQWWC]-NH2] ({X1-PEG2}-CTPWEQWWC-NH2; linker 1-9 via pXylylene), the inhibition constant (Ki) came out at 2.68 nM.
